Assays:
[1] = molecular target: T1, human D4 receptor (D4.2 sub-type) (Homo sapiens, UniProt P21917, DEL265-296); assay: Dopamine D4 Receptor Binding Assay (3H-spiperone displacement); settings: 3H-spiperone 0.25 nM; cells stably transfected with human D4.2; 90 minutes, room temperature, pH 7.4
T1 construct: expressed in transfected cells; host or cells: HEK 298 [sic] (human embryonic kidney) cells
T1 sequence (P21917 with tags, fused parts or gaps DEL265-296): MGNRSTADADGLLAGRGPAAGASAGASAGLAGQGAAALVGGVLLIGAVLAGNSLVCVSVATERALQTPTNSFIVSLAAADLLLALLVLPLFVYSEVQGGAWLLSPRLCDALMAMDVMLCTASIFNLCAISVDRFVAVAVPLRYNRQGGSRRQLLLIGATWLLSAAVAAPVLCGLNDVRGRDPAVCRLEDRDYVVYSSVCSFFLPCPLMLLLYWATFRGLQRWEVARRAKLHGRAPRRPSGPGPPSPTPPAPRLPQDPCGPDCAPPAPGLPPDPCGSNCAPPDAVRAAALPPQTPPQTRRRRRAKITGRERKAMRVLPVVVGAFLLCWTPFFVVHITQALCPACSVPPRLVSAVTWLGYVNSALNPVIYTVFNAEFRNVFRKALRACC
Method: The cells were then centrifuged in a Sorval centrifuge for 10 minutes, 5000 rpm (GS3 rotor) and the pellets quickly frozen in liquid nitrogen and stored at -80° C. until used in binding assay. When used in the assay, cells were thawed on ice for 20 minutes and then 10 mL of incubation buffer (50 mM Tris, 1 mM EDTA, 4 mM MgCl2, 5 mM KCl, 1.5 mM CaCl2, 120 mM NaCl, pH7.4) was added. […] Concentration of receptor protein was determined using the Pierce BCA assay.
(§1) The incubation was started by the addition to 12×75 mm polypropylene tubes 500 μl (50 μg protein) membrane homogenate to a solution of 400 μl incubation buffer, 100 μl ([…].) ^3 H-spiperone (90 Ci/mmol, Amersham, diluted in borosilicate glass vial to) and 500 μl of test compound that was prepared from 1 mM stock dissolved in DMSO and stored at -20° C. in polypropylene cryogenic storage vials until dilution in incubation buffer in borosilicate glass vials.

[2] = molecular target: T2, human D2 receptor (short isoform) (Homo sapiens, UniProt P14416); assay: Dopamine D2 Receptor Binding Assay (3H-spiperone displacement); settings: 3H-spiperone 0.25 nM; GH4C1 (rat pituitary) cells stably transfected with human D2 short; 90 minutes, room temperature, pH 7.4
T2 construct: expressed in transfected cells
T2 sequence (P14416 1-414 isoform P14416-2): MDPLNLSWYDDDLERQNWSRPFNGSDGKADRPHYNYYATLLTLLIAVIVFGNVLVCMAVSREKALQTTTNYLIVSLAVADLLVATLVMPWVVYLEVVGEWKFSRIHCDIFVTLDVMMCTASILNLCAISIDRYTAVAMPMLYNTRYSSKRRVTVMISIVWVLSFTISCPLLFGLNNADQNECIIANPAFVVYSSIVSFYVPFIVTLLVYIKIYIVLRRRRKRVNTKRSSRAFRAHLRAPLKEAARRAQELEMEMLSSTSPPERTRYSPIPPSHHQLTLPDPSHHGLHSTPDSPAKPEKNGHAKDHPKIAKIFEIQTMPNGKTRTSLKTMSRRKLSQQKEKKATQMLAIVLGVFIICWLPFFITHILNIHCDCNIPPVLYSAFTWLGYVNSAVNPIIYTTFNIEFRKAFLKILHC
Method: GH4 C1 (rat pituitary) cells stably transfected with the human D2 receptor (short isoform) were grown in CO2 independent media in roller bottles (1500 cm^2) for 10 days. 100 μM ZnSO4 was added to the cells (the D2 promoter being zinc inducible). After 16 hours, fresh media was added to allow the cells to recover for 24 hours. The cells were harvested using versene and then centrifuged in a Sorval centrifuge for 10 minutes, at 5000 rpm (GS3 rotor). Pellets were quickly frozen in liquid nitrogen and stored at -80° C. until used in the binding assays. When used in the assay, cells were thawed on ice for 20 minutes.
This assay employed the same procedures as the non-specific binding assay for D4 with the exception that 2 μM (final conc.) of (-) sulpiride (Research Chemicals Inc.) was used in place of dopamine.
as §1

5-HT2 receptor = 5-HT2 receptor (Rattus norvegicus, UniProt P14842); assay: 5-HT2 Receptor Binding Assay (3H-ketanserin displacement)
Sequence of 5-HT2 receptor (P14842 whole entry): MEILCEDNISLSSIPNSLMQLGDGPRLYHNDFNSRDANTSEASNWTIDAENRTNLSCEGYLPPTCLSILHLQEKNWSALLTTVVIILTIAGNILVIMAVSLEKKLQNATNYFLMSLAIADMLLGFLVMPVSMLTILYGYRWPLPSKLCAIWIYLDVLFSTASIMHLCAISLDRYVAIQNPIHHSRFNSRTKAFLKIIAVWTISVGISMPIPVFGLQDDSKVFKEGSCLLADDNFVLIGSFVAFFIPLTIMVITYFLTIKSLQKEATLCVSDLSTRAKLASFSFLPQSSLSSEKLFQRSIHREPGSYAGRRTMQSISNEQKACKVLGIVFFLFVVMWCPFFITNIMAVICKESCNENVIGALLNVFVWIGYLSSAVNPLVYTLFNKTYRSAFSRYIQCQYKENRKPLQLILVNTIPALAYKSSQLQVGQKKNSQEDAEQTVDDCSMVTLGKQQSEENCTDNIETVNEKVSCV

Compound	Ki [1] [nM]	Ki [2] [nM]	Ki (5-HT2 receptor) [µM]
CC1CN(C2=Nc3cc(Cl)ccc3Oc3ccccc32)CC(C)N1 (stereo not drawn) [8-chloro-11-(3,5-dimethyl-1-piperazinyl)-dibenz[b,f][1,4]oxazepine]	215	2170	0.0134
CC1CN(C2=Nc3ccccc3Nc3cc(Cl)ccc32)CC(C)N1 (stereo not drawn) [3-chloro-11-(3,5-dimethyl-1-piperazinyl)-5H-dibenz[b,e][1,4]diazepine]	2750	14100	0.024
CC1CN(C2=Nc3ccccc3Oc3ccccc32)CC(C)N1 (stereo not drawn) [11-(3,5-dimethyl-1-piperazinyl)-dibenz[b,f][1,4]oxazepine]	1100	6330	0.368
CC1CN(C2=Nc3ccccc3Oc3ccccc32)C(C)CN1 (stereo not drawn) [11-(2,5-dimethyl-1-piperazinyl)-dibenz[b,f][1,4]oxazepine]	4540	4890	0.092

From patent US5824676A, “5-HT2 receptor ligands” (Allelix Biopharmaceuticals Inc., priority 1996, dated 1998)
